For assay [1], the system named is Mus musculus. Put plainly: In vivo anti-fibrotic activity against methionine and choline-deficient (MCD) diet-induced liver fibrosis C57BL/6J mouse model assessed as reduction in ROS treated at 150 to 300 microg/kg once daily for 3 weeks by qPCR analysis. The assay is classed as functional, organism-based. Particulars: dose 150-300 µg/kg. In general terms: Real-time PCR tracks product formation cycle by cycle.

Assay [2] has as its system LX-2. Kind of assay: Anti-fibrotic activity in human LX2 cells assessed as reduction in COL1alpha expression by measuring relative inhibition rate measured after 24 hrs incubation by Western blot analysis relative to control. The assay is classed as functional. The arrangement: concentration or dose not given beside the values. In general terms: Immunoblotting shows a protein as a band on a membrane.

The test system of assay [3] is Mus musculus. Kind of assay: In vivo anti-fibrotic activity against CCl4-induced liver fibrosis C57BL/6J mouse model assessed as reduction in Acta2 mRNA level at 150 to 300 microg/kg once daily for 3 weeks by RT-qPCR analysis. Particulars: dose 150-300 µg/kg. The assay is classed as functional, organism-based.
Assay [4] concerns Mus musculus. Put plainly: In vivo anti-fibrotic activity against CCl4-induced liver fibrosis C57BL/6J mouse model assessed as liver function by measuring decrease in amino-transferase (ALT) at 150 to 300 microg/kg once daily for 3 weeks by Western blot analysis. The assay is classed as functional, organism-based. Particulars: dose 150-300 µg/kg.
For assay [5], the system named is Mus musculus. Kind of assay: Induction of fatty acid beta-oxidation related gene expression in methionine and choline-deficient (MCD) diet-induced liver fibrosis C57BL/6J mouse model assessed as increase in […] mRNA level at 150 to 300 microg/kg once daily for 3 weeks by qPCR analysis. It counts as functional, organism-based. The note with it: dose 150-300 µg/kg.

Assay [6] deals with Mus musculus. Put plainly: In vivo anti-fibrotic activity against CCl4-induced liver fibrosis C57BL/6J mouse model assessed as decrease in pro-apoptotic protein caspase-8 level at 300 microg/kg once daily for 3 weeks by Western blot analysis. The assay is classed as functional, organism-based. Particulars: dose 300.0 µg/kg.
The test system of assay [7] is Mus musculus. Kind of assay: Induction of fatty acid beta-oxidation related gene expression in methionine and choline-deficient (MCD) diet-induced liver fibrosis C57BL/6J mouse model assessed as increase in PGC1A mRNA level at 150 to 300 microg/kg once daily for 3 weeks by qPCR analysis. It counts as functional, organism-based. Particulars: dose 150-300 µg/kg.
Assay [8] concerns Mus musculus. Put plainly: Reduction in fatty acid synthesis related gene expression in methionine and choline-deficient (MCD) diet-induced liver fibrosis C57BL/6J mouse model assessed as reduction in SCD1 mRNA level at 150 to 300 microg/kg once daily for 3 weeks by qPCR analysis. It counts as functional, organism-based. The note with it: dose 150-300 µg/kg.
For assay [9], the system named is LX-2. Put plainly: Anti-fibrotic activity in human LX2 cells assessed as reduction in […] expression by measuring relative inhibition rate measured after 24 hrs incubation by Western blot analysis relative to control. It counts as functional. The arrangement: concentration or dose not given beside the values.
Assay [10] relates to Mus musculus. Put plainly: In vivo anti-fibrotic activity against CCl4-induced liver fibrosis C57BL/6J mouse model assessed as decrease in alpha-SMA at 150 to 300 microg/kg once daily for 3 weeks by IHC staining based assay. The assay is classed as functional, organism-based. The note with it: dose 150-300 µg/kg.
Assay [11] has as its system Mus musculus. Kind of assay: Induction of fatty acid beta-oxidation related gene expression in methionine and choline-deficient (MCD) diet-induced liver fibrosis C57BL/6J mouse model assessed as increase in ACOX mRNA level at 150 to 300 microg/kg once daily for 3 weeks by qPCR analysis. The note with it: dose 150-300 µg/kg. It counts as functional, organism-based.
Assay [12] deals with Mus musculus. Kind of assay: In vivo anti-fibrotic activity against CCl4-induced liver fibrosis C57BL/6J mouse model assessed as reduction in hepatocyte apoptosis by measuring increase in BAX protein in cytoplasm at 300 microg/kg once daily for 3 weeks. The assay is classed as functional, organism-based. Particulars: dose 300.0 µg/kg.
The subject of assay [13] is Mus musculus. Kind of assay: Reduction in fatty acid synthesis related gene expression in methionine and choline-deficient (MCD) diet-induced liver fibrosis C57BL/6J mouse model assessed as reduction in FAS mRNA level at 150 to 300 microg/kg once daily for 3 weeks by qPCR analysis. The assay is classed as functional, organism-based. The note with it: dose 150-300 µg/kg.

In assay [14] the test system is Mus musculus. Kind of assay: In vivo anti-fibrotic activity against CCl4-induced liver fibrosis C57BL/6J mouse model assessed as reduction in oxidative stress by measuring decrease in lipid oxidation product MDA at 150 to 300 microg/kg once daily for 3 weeks by enzyme activity assay. It counts as functional, organism-based. The note with it: dose 150-300 µg/kg.

The results in this text go back to ChEMBL document CHEMBL5523746, “Discovery of Novel Peptide Antagonists Targeting GPR55 for Liver Inflammation and Fibrosis” (2024).

The source made the active and inactive calls. The rule behind the calls is not given here. Bridge positions count the residues as written; N and C are the ends. Peptide text beside a SMILES is read from it.

As for `CC[C@H](C)[C@@H]1NC(=O)[C@H]([C@@H](C)O)NC(=O)[C@@H]2CCCN2C(=O)[C@H](CO)NC(=O)[C@H](CC(N)=O)NC(=O)[C@H](CCCCN)NC(=O)[C@H](CCCCN)NC(=O)[C@@H](N)CSSC[C@@H](C(=O)O)NC1=O` (H-CKKNSPTIC-OH; disulfide 1-9), the outcome in the assay with Mus musculus [1], in the assay with Mus musculus [3], in the assay on Mus musculus [4], in the assay with Mus musculus [5], with Mus musculus [6] and with Mus musculus [7] was Active. The outcome in the assay on Mus musculus [8], in the assay on Mus musculus [10], in the assay with Mus musculus [11], in the assay with Mus musculus [12], with Mus musculus [13] and in the assay with Mus musculus [14] was Active. The Activity stood at 40% in the assay with LX-2 [2] and 47% with LX-2 [9].
